Experimental data published in article PMC12298827, “Subchronic Toxicities of Four Per- and Polyfluoroalkyl Substances (PFASs) by Oral Exposure in Sprague–Dawley Rats” (Toxics, 2025).

System: male and female Sprague–Dawley rats
Test: 90-day subchronic oral gavage toxicity study
Type: in vivo, rat
Description: Subchronic (90-day) studies were performed in accordance with current U.S. EPA’s Toxic Substances Control Act Good Laboratory Practice (GLP) Standards, with the following two general exceptions to the GLP guidelines: Analysis of the dose formulations was conducted according to RTI-approved Standard Operating Procedures, and corn oil (the vehicle) was not characterized (certificate of analysis from the vendor is available in the appendices to the final reports). Male and female Sprague–Dawley rats (five dose levels plus a control, n = 10/sex/dose group, corn oil vehicle dose volume of 3 mL/kg; oral gavage) were used in these studies, and the rats were euthanized on SD 91. The dose levels for PFHI were 0, 12.5, 25, 50, 100, and 200 mg/kg-day. The dose levels for MHFPK were 0, 18.8, 37.5, 75, 150, and 300 mg/kg-day. The dose levels for PFNAC were 0, 0.1, 0.3, 1.0, 3.0, and 10 mg/kg-day for male rats and 0, 0.3, 1.0, 3.0, 10, and 30 mg/kg-day for female rats. For CTFPA, the dose levels were 0, 1.9, 3.8. 7.5, 15, and 30 mg/kg-day for male rats and 0, 6.3, 12.5, 25, 50, and 100 mg/kg-day for female rats. For each PFAS, three batches of dosing solution were prepared. The time between the batch preparation of the dosing solutions ranged between 29 and 39 days. Blood samples were collected from all the rats at termination for serum chemistry, hematology, coagulation, and the analysis of the parent PFAS chemical in the plasma. In vivo data collection and further detail on the endpoints examined postmortem are described below.
The rats were observed twice daily for morbidity and mortality throughout the study period. At least once prior to randomization to test groups and weekly thereafter, the rats were physically examined, and bodyweights were obtained. Feed consumption was quantified weekly starting on SD 1.
Neurotoxicity was evaluated using the functional observational battery (FOB) and measuring locomotor activity (LMA) 2–4 h post dosing on SDs 78–80 and 80–84, respectively. For both the 14- and 90-day studies, an ophthalmologic examination was conducted prior to randomization and near the end of the study, using indirect ophthalmoscopy and slit–lamp biomicroscopy (as needed) after the administration of a mydriatic solution.
Hematology, biochemistry, and coagulation endpoints were measured at the termination of the study. A Siemens Advia 2120i hematology analyzer (Siemens Healthineers, Erlangen, Germany) was used to measure (or calculate) the parameters related to the complete blood count, leukocyte differential count, and reticulocyte count. The hematology parameters are listed and described in Table 2. The prothrombin time […] and activated partial thromboplastin time (APTT) were measured using an Instrumentation Laboratory (Bedford, MA, USA) ACL Elite Pro coagulation analyzer (laser–nephelometric centrifugal method).
At necropsy, the rats were visually examined for external abnormalities and organ weights (absolute and relative to the BW and brain weight), which were recorded (paired organs weighed together). The tissues were preserved in 10% neutral buffered formalin (NBF), except for the ocular tissues, testes, and epididymides, which were preserved in modified Davidson’s fixative and later transferred to 10% NBF. Bone marrow smears were prepared from the femurs, and the slides were air-dried, fixed in methanol, stained, and stored at room temperature for possible future evaluation. The preserved tissues were embedded in paraffin, sectioned, stained with hematoxylin and eosin, and examined by a board-certified veterinary pathologist.
Statistical analysis was performed using Provantis™ Version 10 or greater (Instem LSS, Limited; Stone, Staffordshire, UK). Differences among the treatment groups compared to the control were evaluated using one-way analysis of variance (ANOVA) if the underlying assumptions of a normal distribution (Shapiro–Wilk test) and the homogeneity of the variance (Levene’s test) were satisfied. […]

## C=CC(=O)OCC(F)(F)C(F)(F)C(F)(F)C(F)(F)C(F)(F)C(F)(F)C(F)(F)C(F)F [PFNAC, 1H,1H,9H-Perfluorononyl acrylate]
female, 30 mg/kg-day
  Liver/Body Weight: 3.22%
  Liver/Brain Weight: 499%
  MPV: 7.95 ± 0.58 fL
  PT: 14.44 s
  RBC: 7.067±0.364 M/µL
  Total BW change: 106.79 g
  Total Food Consumed: 1525 g
male
  BMD10, absolute kidney weight increase: 0.17 mg/kg-day
  BMD10, absolute liver weight increase: 0.09 mg/kg-day
  BMD10, relative liver weight increase: 0.15 mg/kg-day
  BMDL, absolute kidney weight increase: 0.06 mg/kg-day
  BMDL, absolute liver weight increase: 0.04 mg/kg-day
  BMDL, relative liver weight increase: 0.13 mg/kg-day
  LOEL, absolute kidney weight increase: 0.3 mg/kg-day
  LOEL, absolute liver weight increase: 0.3 mg/kg-day
  LOEL, relative kidney weight increase: 1.0 mg/kg-day
  LOEL, relative liver weight increase: 0.3 mg/kg-day
  NOEL, absolute kidney weight increase: 0.1 mg/kg-day
  NOEL, absolute liver weight increase: 0.1 mg/kg-day
  NOEL, relative kidney weight increase: 0.3 mg/kg-day
  NOEL, relative liver weight increase: 0.1 mg/kg-day
male, 0.1 mg/kg-day
  % BW Gain: 110.97%
  % Diff, % BW Gain: 9.90%
  % Diff, Total BW change: 10.47%
  % Diff, Total Food Consumed: 3.57%
  A/G: 0.90±0.08 ratio
  ABNEUT: 4.163±1.653 K/µL
  ABRETi: 193.23±33.44 10^9/L
  ABSEOS: 0.112±0.047 K/µL
  ALB: 3.60 ± 0.21 g/dL
  ALPi: 138.7±40.9 U/L
  APTT: 23.16 s
  BUN: 16.2 ± 1.6 mg/dL
  CHOL: 73.4 ± 15.5 mg/dL
  GLOB: 4.03 ± 0.29 g/dL
  GLUC: 107.6 ± 8.6 mg/dL
  HCT: 46.10±4.64%
  HGB: 14.36 ± 1.40 g/dL
  Kidney Weight: 3.14 g
  Kidney/Body Weight: 0.51%
  Kidney/Brain Weight: 141%
  Liver Weight: 14.99 g
  Liver/Body Weight: 2.41%
  Liver/Brain Weight: 673%
  MPV: 7.82 ± 0.50 fL
  PT: 15.98 s
  RBC: 8.281±0.895 M/µL
  Total BW change: 333.40 g
  Total Food Consumed: 2298 g
male, 0.3 mg/kg-day
  % BW Gain: 113.17%
  % Diff, % BW Gain: 12.08%
  % Diff, Total BW change: 12.46%
  % Diff, Total Food Consumed: 9.40%
  A/G: 0.98±0.10 ratio
  ABNEUT: 3.679±1.341 K/µL
  ABRETi: 224.66±50.41 10^9/L
  ABSEOS: 0.108±0.037 K/µL
  ALB: 3.74 ± 0.23 g/dL
  ALPi: 174.2±32.7 U/L
  APTT: 15.99 s
  BUN: 18.3 ± 1.6 mg/dL
  CHOL: 78.7 ± 16.8 mg/dL
  GLOB: 3.85 ± 0.30 g/dL
  GLUC: 112.1 ± 9.6 mg/dL
  HCT: 47.33±1.28%
  HGB: 14.69 ± 0.40 g/dL
  Kidney Weight: 3.46 g
  Kidney/Body Weight: 0.56%
  Kidney/Brain Weight: 157%
  Liver Weight: 17.52 g
  Liver/Body Weight: 2.82%
  Liver/Brain Weight: 793%
  MPV: 7.63 ± 0.44 fL
  PT: 15.10 s
  RBC: 8.282±0.259 M/µL
  Total BW change: 339.42 g
  Total Food Consumed: 2427 g
male, 1.0 mg/kg-day
  % BW Gain: 108.93%
  % Diff, % BW Gain: 7.88%
  % Diff, Total BW change: 4.36%
  % Diff, Total Food Consumed: 6.25%
  A/G: 1.11±0.09 ratio
  ABNEUT: 2.627±0.787 K/µL
  ABRETi: 186.29±26.35 10^9/L
  ABSEOS: 0.097±0.026 K/µL
  ALB: 3.99 ± 0.25 g/dL
  ALPi: 327.4±48.9 U/L
  APTT: 12.70 s
  BUN: 20.4 ± 2.6 mg/dL
  CHOL: 62.6 ± 7.6 mg/dL
  GLOB: 3.59 ± 0.18 g/dL
  GLUC: 126.1 ± 10.3 mg/dL
  HCT: 45.42±2.38%
  HGB: 13.91 ± 0.69 g/dL
  Kidney Weight: 3.57 g
  Kidney/Body Weight: 0.61%
  Kidney/Brain Weight: 164%
  Liver Weight: 20.59 g
  Liver/Body Weight: 3.48%
  Liver/Brain Weight: 949%
  MPV: 7.90 ± 0.61 fL
  PT: 15.56 s
  RBC: 8.519±0.467 M/µL
  Total BW change: 314.97 g
  Total Food Consumed: 2357 g
male, 3.0 mg/kg-day
  % BW Gain: 89.59%
  % Diff, % BW Gain: -11.27%
  % Diff, Total BW change: -11.64%
  % Diff, Total Food Consumed: 7.33%
  A/G: 1.18±0.10 ratio
  ABNEUT: 2.351±0.464 K/µL
  ABRETi: 190.46±33.42 10^9/L
  ABSEOS: 0.095±0.043 K/µL
  ALB: 4.10 ± 0.25 g/dL
  ALPi: 286.4±30.8 U/L
  APTT: 12.24 s
  BUN: 22.6 ± 3.6 mg/dL
  CHOL: 68.5 ± 12.2 mg/dL
  GLOB: 3.48 ± 0.13 g/dL
  GLUC: 126.8 ± 13.8 mg/dL
  HCT: 46.18±2.11%
  HGB: 14.09 ± 0.70 g/dL
  Kidney Weight: 3.57 g
  Kidney/Body Weight: 0.65%
  Kidney/Brain Weight: 164%
  Liver Weight: 20.96 g
  Liver/Body Weight: 3.81%
  Liver/Brain Weight: 966%
  MPV: 7.79 ± 0.43 fL
  PT: 14.98 s
  RBC: 8.351±0.354 M/µL
  Total BW change: 266.69 g
  Total Food Consumed: 2381 g
male, 10 mg/kg-day
  % BW Gain: 80.97%
  % Diff, % BW Gain: -19.80%
  % Diff, Total BW change: -20.93%
  % Diff, Total Food Consumed: 2.34%
  A/G: 1.15±0.10 ratio
  ABNEUT: 2.413±0.948 K/µL
  ABRETi: 172.74±32.27 10^9/L
  ABSEOS: 0.101±0.025 K/µL
  ALB: 3.90 ± 0.20 g/dL
  ALPi: 315.8±44.0 U/L
  APTT: 12.57 s
  BUN: 22.4 ± 2.6 mg/dL
  CHOL: 68.0 ± 15.7 mg/dL
  GLOB: 3.39 ± 0.19 g/dL
  GLUC: 122.6 ± 10.8 mg/dL
  HCT: 44.76±2.84%
  HGB: 13.84 ± 0.78 g/dL
  Kidney Weight: 3.53 g
  Kidney/Body Weight: 0.69%
  Kidney/Brain Weight: 170%
  Liver Weight: 21.12 g
  Liver/Body Weight: 4.16%
  Liver/Brain Weight: 1016%
  MPV: 7.66 ± 0.42 fL
  PT: 15.81 s
  RBC: 8.118±0.277 M/µL
  Total BW change: 238.64 g
  Total Food Consumed: 2270 g
